Assay results published in US8802240B2, “Uses of formulations of thyroid hormone analogs and nanoparticulate forms thereof to increase chemosensitivity and radiosensitivity in tumor or cancer cells” (Nanopharmaceuticals LLC, priority 2011, dated 2014).
“Also recorded” adds a separate entry of the source.

Key:
[1] = test system: GL261 tumor cells; experiment: GL261 44° C. hyperthermia; type: cell-based, murine; settings: 44° C. plus Tetrac is the equivalent of 45° C. without Tetrac
Procedure: Additionally, Tetrac sensitizes GL261 cells in hyperthermic conditions. Graded heat treatment of GL261 tumor cells with 44° C. was given, without and with Tetrac. Tetrac increased cell killing as compared to control cells alone, by the equivalent of about 1° C. (i.e., 44° C. plus Tetrac is the equivalent of 45° C. without Tetrac). (See FIG. 63).

[2] = test system: MDA-MB-231 cells; experiment: RNA microarray of MDA-MB-231 cells; type: cell-based, human
Procedure: MDA-MB-231 cells were maintained in DMEM that was supplemented with 10% FBS in a 5% CO2/95% 02 air incubator at 37° C. For two days prior to exposure to Tetrac and nanoparticulate Tetrac, cells were maintained in 0.25% FBS that was stripped of estrogen and thyroid hormone. (See Lin et al., Biochemistry 42: 7571-7579 (2003)).
Microarray analysis experiments were conducted as described previously. (See Glinsky et al., J Clin Invest 115: 1503-1521 (2005); Glinsky et al., J Clin Invest 113: 913-923 (2004); Glinsky et al., Clin Cancer Res 10: 2272-2283 (2004); and Glinsky et al., Mol Carcinog 37: 209-221 (2003)). […] Sample purity and integrity were verified with an Agilent BioAnalyzer (Santa Clara, Calif.). Expression analysis of 54,675 transcripts for each sample was by Affymetrix HG-U133A Plus 2.0 arrays. MAS5.0 software was used for data retrieval and analysis and concordant changes of gene expression in response to unmodified Tetrac and nanoparticulate Tetrac were defined by two-tailed t test at a threshold p value<0.01.
Expression of ˜54,000 transcripts was analyzed in control and drug-treated cultures, using Affymetrix Human Genome U133 plus 2.0 microarrays. Subsequent analysis was focused on genes affected by treatment at p<0.01. There was 93% concordance between Tetrac and Tetrac NP in terms of genes affected; notable disparities included downregulation of epidermal growth factor receptor (EGFR) by Tetrac NP and no affect of unmodified Tetrac on this gene.

[3] = test system: U87MG human glioblastoma cells; experiment: U87MG clonogenic survival after 250 kVp single dose x-irradiation; type: cell-based
Procedure: To irradiate culture flasks, a Philips 250 kVp x-ray machine (Philips Corp., Fall River, Mass.) operated at 250 kVp and 15 mA with added filtration of a 0.4 mm Thoreaus filter was used. The target to source distance was 30 cm. Dose rates were measured using an R-meter (Victoreen Co., Cleveland, Ohio), and converted to absorbed (Gy) doses using appropriate temperature, pressure, and R to Gy conversion factors. The dose rate was approximately 1 Gy/min. Flasks were irradiated after being taken from a 37° C. environment and moved to the x-ray source. Movement at ambient temperature took approximately 1-2 min. Cells were next placed on ice and allowed to cool for 5 min. Lastly, flasks were placed in the Philips irradiator on top of a 2 mm thickness of Lucite which was on top of a layer of crushed ice.
The maximum time needed for irradiation of the single dose survival curve was approximately 8 min.
For SHMT analysis, data lying at or below a fractional survival (F×S) value of 0.368 were fit using a linear regression analysis of the log survival data versus linear dose. From this fit the extrapolation number (n), the quasi-threshold dose (Dq, Gy) and the inverse of the inactivation slope (Do, Gy) were derived.
For LQ analyses, survival data lying between the fractional survivals of 1.00 and 0.05 were used. The log survival data were transformed to a linear form using the relationship (−ln F×S/D) and plotted against D. A linear regression analysis was performed to yield the LQ equation along with the 95% confidence limits on the y-intercept (alpha) and the slope (beta) using a t-table with the appropriate (N−1) degrees of freedom. (See Goldstein A. Biostatistics, Academic Press, 1995.)

[4] = test system: GL261 cells; experiment: GL261 sublethal damage repair (SLDR), split dose; type: cell-based, murine
Procedure: SLDR was measured at 10% immediate survival level as determined from the acute single dose curve for both control and Tetrac-treated cells in both growth states (i.e. exponentially growing and plateau phase cells. Flasks were irradiated with one-half of the total dose and returned to the 37° C. incubator. At increasing periods of time, flasks were removed, and given the second half of the immediate 10% survival dose. Survival was measured at 0, 0.5, 1.0, 1.5, 2.0, 3.0, 4.0, 6.0, 8.0, and 10.0 hours after the initial dose.
To investigate the effects of Tetrac on SLDR and PLDR, cells were chosen that had been given a one-hour treatment with Tetrac at two different times, i.e., at 70 and 270 hours post-seeding).

[5] = test system: MCF7 and MCF7/R cells; experiment: Intracellular accumulation of radiolabeled doxorubicin; type: cell-based; settings: 24 hours, presence vs absence of Tetrac
Procedure: FIG. 15A is a Western blofshowing the expression of P-gp, GST and SOD in wild type (W) drug sensitive and resistant (R) MCF7 cells. […] The cells were treated for 24 h with each drug alone or the combination of both, after that, expression of drug resistance molecules was determined by Western blot using specific antibodies. […] The cells were incubated for 24 hours with doxorubicin in the absence or the presence of Tetrac, after that they were washed and then solubilized. Radioactivity associated with the cell lysates was counted and compared between the two cell lines either treated or not with Tetrac. The data represent an average of 3 determinations±SE.

[6] = test system: human MTC cells; experiment: RNA microarray of h-MTC cells; type: cell-based
Procedure: Technical aspects of microarray studies, stringent quality control of microarray studies and statistic analysis of gene expression were as described previously. […] In brief, the array hybridization and processing, data retrieval and the analysis were carried out with standard sets of Affymetrix (Santa Clara, Calif.) equipment, software and protocols in an Affymetrix microarray core facility. RNA was extracted from cell cultures of two independent biological replicates of each experimental condition and analyzed for sample purity and integrity, using BioAnalyzer instrumentation (Agilent, Santa Clara, Calif.). Expression analysis of 54,675 transcripts was conducted for each sample, using Affymetrix HG-U133A Plus 2.0 arrays. Data retrieval and analysis was completed by MAS5.0 software. Concordant changes of gene expression for each experimental condition were determined at the statistical threshold P value, <0.01 (two-tailed t test).

[7] = test system: human medullary thyroid carcinoma cells; experiment: Confocal distribution of Cy3-labeled Tetrac vs Tetrac NP; type: cell-based; settings: around 2 h
Text: Penicillin streptomycin (1%) was present in both culture media.

O=C(O)Cc1cc(I)c(Oc2cc(I)c(O)c(I)c2)c(I)c1 [Tetrac, tetraiodothyroacetic acid]
increase in cell killing, temperature equivalent [1]: about 1 °C
Change: BCL2L14 [2]: not a significant stimulatory action and ↑
Change: CASP2, Caspase 2 [2]: not a significant stimulatory action and ↑
Change: CBY1, Catenin inhibitor [2]: significantly increased and induced and ↑
Change: CDKN2C, Cyclin-dependent kinase inhibitor [2]: ↑
Change: CTNNA1, Catenin [2]: ↓
Change: CTNNA2, Catenin [2]: ↓
Change: CTSL1, Cathepsin 1 [2]: ↓
Change: CXCL10, Anti-endothelial cell chemokine [2]: ↑
Change: Cyclins, Cell cycle regulators [2]: ↓
Change: EDN1, Endothelin-1 [2]: ↑
Change: Interleukins, Inflammatory cytokines [2]: ↓
Change: MCL1, Myeloid cell leukemia-1 [2]: did not significantly affect and ↓
Change: NR1D1, Nuclear receptor Rev-erbα [2]: ↓
Change: THBS1, Thrombospondin [2]: strongly induced and ↑
Change: XIAP, X-linked inhibitor of apoptosis protein [2]: acted on XIAP and ↓
expression of epidermal growth factor receptor (EGFR) (in words) [2]: ineffective; also recorded: no affect
increase of α (ratio of the alpha values, sensitization factor) [3]: 3.6 fold
isoeffect comparison at 10% survival, ratio [3]: 2.2
ratio of relative survival values at 2 Gy [3]: 4.6
reduction of the D0 value [3]: 31%
β (LQ) ([3]; Tetrac treated cells, control 0.016 (±0.002)): 0.076 (±0.006)
n (SHMT) ([3]; Tetrac treated cells, control 2.97 (2.41-3.21)): 1.01 (0.45-2.3)
sensitization factor, average of 3 comparisons ([3]; range of 2.2 to 4.6): 3.5
repair of x-ray damage at 6 to 8 hours post-irradiation (in words) ([4]; 2 uM, FIG. 58, control repaired by a factor of 4 to 5): showed no repair of x-ray damage
reduction of SLDR by a factor of ([4]; exponential cells): 1.8
SLDR recovery ratio at 10 hours post-irradiation ([4]; exponential cells, two 2.50 Gy split doses, control approximately 4 to 5): approximately 2.2
SLDR recovery ratio at 2 hours after the first dose ([4]; exponential cells, control approximately 2.5): 1.8
survival at 3 hours after the initial dose, relative to survival at 0 hours (fixation of damage) ([4]; plateau phase cells with Tetrac): approximately 36%
decrease in cellular repair (SLDR) by a factor of ([4]; plateau phase cells, three hours post-irradiation): ~3
intracellular accumulation of radiolabeled doxorubicin (in words) [5]: increased significantly
expression of VEGFA (in words) [6]: significantly decreased
expression of genes associated with induction of apoptosis: CASP2, DFFA, FAF1, CASP8AP2 (in words) [6]: caused expression
expression of thrombospondin (THBS1) gene (in words) [6]: increase
distribution within h-MTC cells (in words) [7]: distributed in the cytoplasm
